From DBAASP
≈ marks a conversion by molar mass, not a printed value.

Tests used:
Assay in all cases: ≥ marks a high value that may be exact or a test limit, other limits are often not marked, values filed in µg/mL are converted to µM
[1] = tested on: Staphylococcus aureus ATCC 25923
Bordetella pertussis = tested on: Bordetella pertussis
[2] = tested on: Escherichia coli ATCC 25922
[3] = tested on: Klebsiella pneumoniae KK3 9904
[4] = tested on: Staphylococcus aureus NCTC 8325
[5] = tested on: Enterococcus faecalis ATCC 29212
[6] = tested on: Enterobacter cloacae HNTCC 53001
[7] = tested on: Pseudomonas aeruginosa ATCC 27853
[8] = tested on: Proteus mirabilis ATCC 25933
[9] = tested on: Staphylococcus epidermidis RP62A
[10] = tested on: Candida albicans ATCC 90028
[11] = tested on: Staphylococcus aureus ATCC 29213
[12] = tested on: Staphylococcus epidermidis RP62A/1
[13] = tested on: Stenotrophomonas maltophilia
Acinetobacter baumannii = tested on: Acinetobacter baumannii
[14] = tested on: Klebsiella pneumoniae ATCC 700603
[15] = tested on: Escherichia coli ATCC 25726
[16] = tested on: Candida albicans F7-39/IDE99
Bacillus subtilis = tested on: Bacillus subtilis
Pseudomonas aeruginosa = tested on: Pseudomonas aeruginosa
Escherichia coli B = tested on: Escherichia coli B
Staphylococcus aureus = tested on: Staphylococcus aureus
[17] = tested on: Candida albicans NCTC 3179
[18] = tested on: Streptococcus mutans NCTC 10449
[19] = tested on: Lactobacillus acidophilus NCTC 1723
[20] = tested on: Enterococcus faecalis NCTC 12697

`CC[C@H](C)[C@@H]1NC(=O)[C@H](CCC(N)=O)NC(=O)[C@H](CCCCN)NC(=O)[C@H](CCSC)NC(=O)[C@H](CCCCN)NC(=O)[C@@H]2CCCN2C(=O)[C@H](C)NC(=O)[C@@H]2CSSC[C@@H](C(=O)N[C@@H](CCCCN)C(=O)N[C@@H](CCCN=C(N)N)C(=O)N[C@@H](CCCCN)C(=O)O)NC(=O)[C@@H]3CSSC[C@H](NC(=O)[C@H](CO)NC(=O)[C@@H](NC(=O)[C@H](CO)NC(=O)[C@H](CC(N)=O)NC(=O)CNC(=O)[C@@H](NC(=O)[C@H](CC(N)=O)NC(=O)[C@@H](N)CCCCN)[C@@H](C)CC)C(C)C)C(=O)N[C@@H](CC(C)C)C(=O)N[C@@H](CCCN=C(N)N)C(=O)N[C@@H](CC(N)=O)C(=O)N[C@@H](CCCCN)C(=O)NCC(=O)N[C@@H](C(C)C)C(=O)N[C@@H](CSSC[C@H](NC(=O)[C@H]([C@@H](C)O)NC(=O)CNC1=O)C(=O)NCC(=O)N[C@@H](CCSC)C(=O)N1CCC[C@H]1C(=O)N[C@@H](CCC(N)=O)C(=O)N[C@@H](C(C)C)C(=O)N[C@@H](CCCCN)C(=O)N3)C(=O)N[C@@H](CCSC)C(=O)N1CCC[C@H]1C(=O)NCC(=O)N[C@@H](CCCCN)C(=O)N2` [KNIGNSVSCLRNKGVCMPGKCAPKMKQIGTCGMPQVKCCKRK] was tested, and the MIC [1] was 17.7 µM (≈ 79.9 µg/mL), the MIC (Bordetella pertussis) was 1.1 µM (≈ 4.99 µg/mL) and the MIC [2] was 22.1 µM (≈ 99.9 µg/mL).

In the case of `CSCC[C@H](NC(=O)[C@@H](NC(=O)[C@H](CCCCN)NC(=O)[C@H](CO)NC(=O)[C@H](C)NC(=O)[C@H](CC(C)C)NC(=O)[C@H](CO)NC(=O)CNC(=O)[C@@H](NC(=O)[C@@H](NC(=O)[C@H](CC(N)=O)NC(=O)[C@H](CCCCN)NC(=O)[C@H](C)NC(=O)[C@H](C)NC(=O)CNC(=O)[C@H](CCCCN)NC(=O)[C@H](CC(C)C)NC(=O)[C@@H](NC(=O)[C@H](CC(=O)O)NC(=O)[C@H](CC(C)C)NC(=O)[C@H](CC(C)C)NC(=O)CN)[C@@H](C)O)C(C)C)C(C)C)C(C)C)C(=O)N[C@@H](CCC(=O)O)C(=O)N[C@@H](CCCCN)C(=O)N[C@@H](CC(C)C)C(N)=O` [GLLDTLKGAAKNVVGSLASKVMEKL], the MIC [3] is reported as ≥ 100 µM, the MIC [4] is reported as ≥ 200 µM and the MIC [5] is reported as 200 µM (≈ 508 µg/mL). For the same molecule, the MIC [6] was ≥ 50 µM, the MIC [7] was 100 µM (≈ 254 µg/mL) and the MIC [8] was ≥ 200 µM. The MIC [9] was ≥ 100 µM, the MIC [10] was ≥ 200 µM and the MIC [2] was 25 µM (≈ 63.6 µg/mL).

For `CC[C@H](C)[C@H](N)C(=O)N[C@@H](CCCCN)C(=O)N[C@@H](CC(C)C)C(=O)N[C@@H](CO)C(=O)N1CCC[C@H]1C(=O)N[C@@H](CCC(=O)O)C(=O)N[C@H](C(=O)N[C@@H](CCCCN)C(=O)N[C@@H](CCCCN)C(=O)N[C@@H](CC(N)=O)C(=O)N[C@@H](CC(C)C)C(=O)N[C@@H](CCCCN)C(=O)N[C@@H](CCCCN)C(=O)N[C@H](C(=O)N[C@@H](CC(C)C)C(=O)N[C@@H](CCCCN)C(=O)NCC(=O)N[C@@H](C)C(=O)N[C@H](C(=O)N[C@@H](CCCCN)C(=O)NCC(=O)N[C@@H](C)C(=O)N[C@H](C(=O)N[C@@H](C)C(=O)N[C@H](C(=O)N[C@@H](C)C(=O)N[C@@H](CCCCN)C(=O)N[C@@H](CCSC)C(=O)N[C@H](C(N)=O)C(C)C)C(C)C)[C@@H](C)CC)[C@@H](C)CC)C(C)C)[C@@H](C)O` [IKLSPETKKNLKKVLKGAIKGAIAVAKMV], the MIC [11] was 3.1 µM (≈ 9.54 µg/mL), the MIC [12] was 0.8 µM (≈ 2.46 µg/mL) and the MIC [13] was 3.1 µM (≈ 9.54 µg/mL). The MIC (Acinetobacter baumannii) was 3.1 µM (≈ 9.54 µg/mL), the MIC [1] was 3.1 µM (≈ 9.54 µg/mL) and the MIC [7] was 25 µM (≈ 76.9 µg/mL). For the same molecule, the MIC [14] was 12.5 µM (≈ 38.5 µg/mL), the MIC [15] was 6.25 µM (≈ 19.2 µg/mL) and the MIC [8] was ≥ 100 µM. The MIC [9] was 1.6 µM (≈ 4.92 µg/mL) and the MIC [10] was ≥ 50 µM.

`CC(C)C[C@@H]1NC(=O)[C@H](CCCCN)NC(=O)[C@H](CC(C)C)NC(=O)[C@@H]2CCCN2C(=O)CNC(=O)[C@H](CCCCN)NC(=O)[C@@H](NC(=O)[C@H](CCCCN)NC(=O)CNC(=O)[C@H](CCCCN)NC(=O)[C@H](CCCCN)NC(=O)[C@H](CCCCN)NC(=O)[C@H](C)N)CSSC[C@@H](C(N)=O)NC(=O)[C@H](CCCCN)NC(=O)[C@H](C)NC(=O)[C@H](C(C)C)NC1=O` [AKKKGKCKGPLKLVAKC] was tested, and the MIC [16] was ≥ 100 µM, the MIC (Bacillus subtilis) was ≥ 65 µM and the MIC (Pseudomonas aeruginosa) was > 100 µM. The MIC (Escherichia coli B) was ≥ 100 µM and the MIC (Staphylococcus aureus) was > 100 µM.

With `CSCC[C@H](NC(=O)[C@H](CC(C)C)NC(=O)CNC(=O)[C@@H](NC(=O)[C@H](Cc1ccccc1)NC(=O)[C@H](CO)NC(=O)[C@H](CC(=O)O)NC(=O)[C@@H](NC(=O)[C@H](CCCCN)NC(=O)[C@@H](N)Cc1cnc[nH]1)[C@@H](C)O)C(C)C)C(N)=O` [HKTDSFVGLM] the MIC [17] was ≥ 441 µM, the MIC [18] was ≥ 441 µM and the MIC [1] was > 441 µM. The MIC [7] was > 441 µM, the MIC [19] was ≥ 441 µM and the MIC [20] was ≥ 441 µM. The MIC [2] was > 441 µM.
